Data set [1] relates to E13.5 rat embryonic pancreases. The experiment in a line: Number of NGN3-positive cells by immunohistochemistry in cultured embryonic pancreases. It is filed as cell-based. The conditions noted are these: for number of NGN3-positive endocrine progenitor cells, decrease: 1 day, NAC at 10 µM or CCCP at 1 µM. On the procedure: (§1) The embryos were harvested on E13.5. The dorsal pancreatic bud was dissected, as described previously (Attali et al., 2007). For the depletion of the mesenchyme, the digestive tract was incubated with 0.5 mg/ml collagenase A (Roche, Meyaln, France) at 37°c for 30 min, then washed several times with Hank's balanced solution (Invitrogen, Cergy-Pontoise, France) at 4°c, and the epithelium was mechanically separated from the mesenchyme using needles on 0.25% agar, 25% Hank's balanced solution and 75% RPMI gel (Life Technologies, Invitrogen) in a petri dish. Pancreatic rudiments (epithelium with mesenchyme) or epithelia were then cultured at the air-medium interface on Millicell culture plate inserts (Millipore, Molsheim, France) in Petri dishes containing RPMI 1640 (Invitrogen) supplemented with penicillin (100 U/ml), streptomycin ([…]), HEPES (10 mM), l-glutamine (2 mM), nonessential amino acids (1; Invitrogen, Cergy-Pontoise, France) and 10% heat-inactivated calf serum (Hyclone, South Logan, UT, USA) for one to 7 days. […] Glucose (Sigma, Saint-Quentin Fallavier, France) was used at 20 mM/l and the inhibitor of the ERK pathway (U0126, Cell Sinaling Technologies Ozyme, Saint-Quentin, France) at 10 µmol/l. Cultures were maintained at 37°C in humidified 95% air and 5% CO2.
Ad-CMV-GFP (ref 1060, Vector Biolabs, Philadelphia, PA, USA) and Ad-Catalase (ref 1475, Vector Biolabs) adenoviruses were used to infect the embryonic Wistar rat epithelia. Tissues were incubated with viral particles at the multiplicity of infection of 1000 for 4 h at 37°C in RPMI 1640 as described in (Heinis et al.2012). After infection, tissues were washed twice in HBSS and cultured at the air-medium interface.
Tissues were fixed in 10% formalin and processed for immunohistochemistry, as described previously (Attali et al., 2007). The following antibodies were used: mouse anti-insulin (1:2000; Sigma-Aldrich), rabbit anti-PDX1 (1:1,000), rabbit anti-amylase (Sigma-Aldrich, 1:300), mouse anti-E-cadherin (1:100, BD Biosciences, Le Pont de Claix, France), mouse anti-BrdU (1:2, Amersham, Velizy-Villacoublay, France), rabbit anti-NGN3 (1:1000) (Guillemain et al., 2007), rabbit anti-catalase (1:1000, Rockland Immunochemicals, Gilbertsville, PA USA). The fluorescent secondary antibodies were fluorescein-isothiocyanate anti-rabbit and Texas-red anti-mouse antibodies (1:200, Jackson Immunoresearch, Suffolk, England), and Atexa-fluor anti-rabbit antibody (1:400, Biogenex, Fremont, CA, USA). For NGN3, revelation was performed using the vectastain ABC kit (Vector LAB, Peterborough, England). Photographs were taken using a fluorescence microscope (Leitz DMRB; Leica) and digitized using a Hamamatsu (Middlesex, NJ, USA) C5810 cooled 3CCD camera.
(§2) To quantify the number of NGN3-positive cells, NGN3-positive cells were counted on all sections. Statistical significance was determined using Student's t test.

For data set [2], the system named is E13.5 rat embryonic pancreases. The experiment in a line: Beta cell development (insulin staining surface) in cultured embryonic pancreases. It is filed as cell-based. The conditions noted are these: for insulin staining surface: day 7, NAC at 10 µM or CCCP at 1 µM. The source says: The embryos were harvested on E13.5. […] On every image, the surface area of insulin staining was quantified using ImageJ as described in (Heinis et al.).

The subject of data set [3] is Notch receptors 1 and 2, the Notch target Hes 1, the Notch ligands Jagged 1, Jagged 2, Delta-like 1. Particulars: one day, 50 µM H2O2. How it is done: as §1
Total RNA was purified using the Rneasy microkit (Qiagen, Courtaboeuf, France). […]

For data set [4], the system named is early PDX1+ progenitors. The conditions noted are these: 1 day of culture, 50 µM H2O2. How it is done: The embryos were harvested on E13.5. The dorsal pancreatic bud was dissected, as described previously (Attali et al., 2007). For the depletion of the mesenchyme, the digestive tract was incubated with 0.5 mg/ml collagenase A (Roche, Meyaln, France) at 37°c for 30 min, then washed several times with Hank's balanced solution (Invitrogen, Cergy-Pontoise, France) at 4°c, and the epithelium was mechanically separated from the mesenchyme using needles on 0.25% agar, 25% Hank's balanced solution and 75% RPMI gel (Life Technologies, Invitrogen) in a petri dish. Pancreatic rudiments (epithelium with mesenchyme) or epithelia were then cultured at the air-medium interface on Millicell culture plate inserts (Millipore, Molsheim, France) in Petri dishes containing RPMI 1640 (Invitrogen) supplemented with penicillin (100 U/ml), streptomycin ([…]), HEPES (10 mM), l-glutamine (2 mM), nonessential amino acids (1; Invitrogen, Cergy-Pontoise, France) and 10% heat-inactivated calf serum (Hyclone, South Logan, UT, USA) for one to 7 days. […]
Tissues were fixed in 10% formalin and processed for immunohistochemistry, as described previously (Attali et al., 2007). […] Photographs were taken using a fluorescence microscope (Leitz DMRB; Leica) and digitized using a Hamamatsu (Middlesex, NJ, USA) C5810 cooled 3CCD camera.
(§3) Statistical significance was determined using Student's t test.

In data set [5] the test system is Nrf2. The conditions noted are these: pancreases treated with H2O2; data not shown. On the procedure: Total RNA was purified using the Rneasy microkit (Qiagen, Courtaboeuf, France). The cDNA was generated using Superscript reagents (Invitrogen), and the real-time PCR was performed on a 7300 real-time PCR system (Applied Biosystem, Invitrogen) with an SYBR Green PCR master mix. The oligonucleotide sequences for RT-PCR are available on request.

Data set [6] has as its system E13.5 rat embryonic pancreases. The conditions noted are these: one day of culture, 50 µM H2O2. On the procedure:
as §1, with “CO2. […]” for “CO2.”
as §3

The test system of data set [7] is beta cells. Particulars: concentrations of H2O2 used.
The test system of data set [8] is ERK1/2. The experiment in a line: Western blot of ERK1/2 and MEK phosphorylation in cultured embryonic pancreases. It is filed as cell-based, rat. How it is done:
The embryos were harvested on E13.5. The dorsal pancreatic bud was dissected, as described previously (Attali et al., 2007). […] Glucose (Sigma, Saint-Quentin Fallavier, France) was used at 20 mM/l and the inhibitor of the ERK pathway (U0126, Cell Sinaling Technologies Ozyme, Saint-Quentin, France) at 10 µmol/l.
For Western blotting analysis, cells were lysed in Laemmli buffer. Proteins (20µg) were resolved by SDS/PAGE and electrophoretically transferred onto PVDF membrane (Bio-Rad, Hercules, CA, USA). After blocking with milk, membranes were probed with rat anti-p44/42 MAPK (Erk1/2), mouse anti-Phospho-p44/42 MAPK (Erk1/2) (Thr202/Tyr204), anti-Phospho-MEK (all from Cell Signaling Ozyme, ST Quentin en Yvelines, France) and mouse anti-actin (Sigma-Aldrich).Immunoreactive bands were visualized with the SuperSignal System (Pierce; Fisher Scientific, Illkirch, France).
The Mitogen Activated Protein Kinase (MAPK) ERK1/2 pathway, which was recently shown to be sensitive to ROS production in several cell types (Zhang et al., 2013) was examined. […] As a positive control, pancreases were also treated with 20 mM Glucose, an inducer of the ERK1/2 phosphorylation (Briaud et al., 2003). […] To further characterize ERK1/2-dependent effect of ROS on pancreas development, an ERK1/2 inhibitor was used (U0126). To validate the efficiency of the inhibitor, pancreatic explants were first cultured with glucose, in the presence or in the absence of U0126. Activation of ERK1/2 by glucose was abolished in the presence of U0126 (Figure 8A), confirming the efficiency of U0126.
(Immunoblotting shows a protein as a band on a membrane.)

The subject of data set [9] is embryonic pancreases. The experiment in a line: NAC given to pregnant rats in drinking water, analysis of embryonic pancreases. It is filed as in vivo, Wistar Rats. Particulars: pregnant rats treated with 10 mM NAC from E13.5.
Excerpt: Pregnant Wistar Rats were purchased from the Janvier Breeding center (CERJ Janvier, Le Genest Saint-Ile, France). The animals had free access to food pellets and water. Embryonic day 0.5 (E0.5) was considered the first day postcoïtum. Pregnant female were killed by CO2 asphyxiation according to the guidelines of the French Animal Care Committee.
N-Acetyl cystein (Sigma, Saint-Quentin Fallavier, France) treatment was initiated during embryonic life at E13.5 and given into drinking water to pregnant females.
For NGN3, revelation was performed using the vectastain ABC kit (Vector LAB, Peterborough, England).
To quantify the absolute number of insulin-expressing cells, all sections of each pancreatic rudiment were digitized. On every image, the surface area of insulin staining was quantified using ImageJ as described in (Heinis et al.).
as §2
Female pregnant rats at 13.5 days postcoitus were treated with NAC, and the number of NGN3-positive cells was measured.

For `N#CC(C#N)=NNc1cccc(Cl)c1` [CCCP, Carbonyl cyanide m-chlorophenyl hydrazone], the “number of NGN3-positive endocrine progenitor cells, decrease” value in data set [1] was about 2 fold. Further, the insulin staining surface entry in data set [2] is “decrease”.
For `OO` [H2O2, hydrogen peroxide], in data set [1] (H2O2 at 50 µM, without U0126), the “number of NGN3 expressing cells” value is “increased”. For the same compound, in [1] (day 1, 50 µM H2O2), the “number of NGN3-positive cells, increase” value is recorded as about 2 fold. The “expression of Notch pathway genes vs controls” value in data set [3] is given as “No difference”. In addition, the “rate of cell proliferation (BrdU incorporation) vs controls” value in data set [4] is on record as “similar”. Also, the “Nrf2 RNA levels” value in [5] is “slight increase”. For the same compound, in data set [6], the “rate of apoptosis vs controls” value is “No difference”. Further, the “insulin surface, larger than controls” value in [2] (H2O2 50µM, analyzed seven days later) is 2.6 fold. The “oxidative stress or damage in the resulting beta cells” value in data set [7] is reported as “did not produce detectable oxidative stress or damage”. Moreover, the “activation of the ERK1/2 pathway” value in [8] (5 or 15 minutes, H2O2 50 µM or 20 mM Glucose) is “induced”. Further, the “time after addition at which ERK1/2 activation was observed” value in [8] (H2O2 50 µM) is listed as “five”.
`CC(=O)N[C@@H](CS)C(=O)O` [NAC, N-Acetyl cystein]: the “number of NGN3-positive endocrine progenitor cells, decrease” value in [1] is given as about 2 fold. Also, in data set [9] (at E20.5), the “reduction of the beta cell mass” value amounted to 2.5 fold. Further, the “number of NGN3-positive cells, decrease compared to controls” value in data set [9] (embryonic pancreases analyzed at E20.5) came out at 1.6 fold. For the same compound, the insulin staining surface result in data set [2] is reported as “decrease”.
`N#CC(=C(/N)Sc1ccccc1N)/C(C#N)=C(\N)Sc1ccccc1N` [U0126, reference compound]: in data set [1] (H2O2 at 50 µM with U0126), the “H2O2-induced increase of NGN3 expressing cells in the presence of the inhibitor” value is given as “abrogated”. Also, the “activation of ERK1/2 by glucose in the presence of the inhibitor” value in data set [8] (20 mM Glucose, U0126 10 µmol/l) is recorded as “abolished”. The “activation of the ERK1/2 pathway by H2O2 in the presence of the inhibitor” value in data set [8] (H2O2 50 µM, U0126 10 µmol/l) is “blunted”.

Source of the values: patent publication EP2896688A1 (Centre National de la Recherche Scientifique (CNRS), priority 2014, dated 2015).
